In the supplement of paper PMC4862054:

Columns and labels:
Conditions in all cases: incubation time: 72 h
[1] = test system: MDA-MB-231; experiment: normalised response (% of control), CellTiter-Glo; higher = more viable cells (100 = DMSO, 0 = benzethonium chloride kill control)
Description: (§1)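 DSRT, 72 h incubation, CellTox Green / CellTiter-Glo readout. Signal is normalised to DMSO and benzethonium chloride controls. Value is the normalised response at the highest dose.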

[2] = test system: MDA-MB-468; experiment: as above
Description: as §1

[3] = test system: HCC1143; experiment: as above
Description: as §1

[4] = test system: CAL-85-1; experiment: as above
Description: as §1

[5] = test system: MDA-MB-453; experiment: as above
Description: as §1

[6] = test system: MFM-223; experiment: as above
Description: as §1

[7] = test system: HCC1599; experiment: as above
Description: as §1

[8] = test system: Hs578T; experiment: as above
Description: as §1

[9] = test system: BT-549; experiment: as above
Description: as §1

[10] = test system: HDQ-P1; experiment: as above
Description: as §1

[11] = test system: BT-474; experiment: as above
Description: as §1

[12] = test system: SK-BR-3; experiment: as above
Description: as §1

[13] = test system: DU-4475; experiment: as above
Description: as §1

[14] = test system: MDA-MB-436; experiment: as above
Description: as §1

[15] = test system: CAL-120; experiment: as above
Description: as §1

[16] = test system: CAL-148; experiment: as above
Description: as §1

[17] = test system: HCC1937; experiment: as above
Description: as §1

[18] = test system: MCF-10A; experiment: as above
Description: as §1

[19] = test system: CAL-51; experiment: as above
Description: as §1

[20] = test system: MDA-MB-231; experiment: normalised response (% of control), CellTox Green; higher = less cell death (100 = DMSO, 0 = benzethonium chloride kill control)
Summary of the method: (§2)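 Plates were normalised with 0.1 % DMSO as 100 and a positive kill control as 0. Breast cancer cell lines in 20 µl suspension had been seeded into 384-well plates with compound at 5 concentrations in 10-fold steps over a compound-specific 10,000-fold range, incubated 72 h, and read for CellTox Green fluorescence (485/520 nm) followed by CellTiter-Glo luminescence. Each value is the normalised signal at a single concentration.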

[21] = test system: MDA-MB-468; experiment: as above
Summary of the method: as §2

[22] = test system: HCC1143; experiment: as above
Summary of the method: as §2

[23] = test system: CAL-85-1; experiment: as above
Summary of the method: as §2

[24] = test system: MDA-MB-453; experiment: as above
Summary of the method: as §2

[25] = test system: MFM-223; experiment: as above
Summary of the method: as §2

[26] = test system: HCC1599; experiment: as above
Summary of the method: as §2

[27] = test system: Hs578T; experiment: as above
Summary of the method: as §2

[28] = test system: BT-549; experiment: as above
Summary of the method: as §2

[29] = test system: HDQ-P1; experiment: as above
Summary of the method: as §2

[30] = test system: BT-474; experiment: as above
Summary of the method: as §2

[31] = test system: DU-4475; experiment: as above
Summary of the method: as §2

[32] = test system: MDA-MB-436; experiment: as above
Summary of the method: as §2

[33] = test system: CAL-120; experiment: as above
Summary of the method: as §2

[34] = test system: CAL-148; experiment: as above
Summary of the method: as §2

[35] = test system: HCC1937; experiment: as above
Summary of the method: as §2

[36] = test system: MCF-10A; experiment: as above
Summary of the method: as §2

[37] = test system: CAL-51; experiment: as above
Summary of the method: as §2

[38] = test system: CAL-85-1; experiment: normalised viability (% of control), CellTiter-Blue; higher = more viable cells (about 100 = DMSO control)
Description: (§3)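 DSRT, CellTiter-Blue viability, 72 h incubation. Signal is normalised to DMSO and benzethonium chloride controls. Value is the normalised response at dose 7.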

[39] = test system: MDA-MB-453; experiment: as above
Description: as §3

[40] = test system: HDQ-P1; experiment: as above
Description: as §3

[41] = test system: DU-4475; experiment: as above
Description: as §3

[42] = test system: CAL-148; experiment: as above
Description: as §3

[43] = test system: CAL-51; experiment: as above
Description: as §3

CCN(CC)CCCC(C)Nc1ccnc2cc(Cl)ccc12 (centres undefined) [Chloroquine] (100000 nM)
normalised response [1]: 0.24%
normalised response [2]: 1.06%
normalised response [3]: 22.8%
normalised response [4]: 0.53%
normalised response [5]: 0.26%
normalised response [6]: 0.63%
normalised response [7]: 0.3%
normalised response [8]: 0.3%
normalised response [9]: 0.71%
normalised response [10]: 0.97%
normalised response [11]: 2.13%
normalised response [12]: 0.25%
normalised response [13]: 0.38%
normalised response [14]: 1.76%
normalised response [15]: 7.89%
normalised response [16]: 0.47%
normalised response [17]: 3.72%
normalised response [18]: 1.88%
normalised response [19]: 1.42%
normalised response [20]: -46.1%
normalised response [21]: -27.6%
normalised response [22]: 67.2%
normalised response [23]: -51.4%
normalised response [24]: 1.49%
normalised response [25]: 0.04%
normalised response [26]: 57%
normalised response [27]: -118%
normalised response [28]: 30.4%
normalised response [29]: 23%
normalised response [30]: -2.97%
normalised response [31]: 48.9%
normalised response [32]: 42.2%
normalised response [33]: 8.39%
normalised response [34]: 24.9%
normalised response [35]: 18.7%
normalised response [36]: -62.8%
normalised response [37]: 28.5%

COc1c2occc2cc2ccc(=O)oc12 [Methoxsalen] (1000 nM)
normalised viability [38]: 104%
normalised viability [39]: 97.9%
normalised viability [40]: 96.9%
normalised viability [41]: 112%
normalised viability [42]: 106%
normalised viability [43]: 100%

CCN(CC)CCCC(C)Nc1ccnc2cc(Cl)ccc12 (centres undefined) [Chloroquine] (99 nM)
normalised viability [38]: 81.9%
normalised viability [39]: 99.7%
normalised viability [40]: 132%
normalised viability [41]: 110%
normalised viability [42]: 99.1%
normalised viability [43]: 91%
